Experimental data taken from US6576638B1, “Use of substance P antagonists in the treatment of the adenocarcinomas” (Biopolis S.p.A., priority 1999, dated 2003).
Where no end group is shown, it is not given here.

Key:
[1] = tested on: PC-3 human prostatic cancer cell lines; test: Vascular density quantification (CD31 immunohistochemistry) in orthotopic PC-3 prostate tumors in nude mice; type: in vivo, male athymic nude mices; conditions: compared to control groups (L-703,606 also vs SP treated mice); p<0.05; 1 ng up to 1 mg; three up to 180 days
Procedure: (§1) For this studies has been used male athymic nude mices (Harlan). The mices were housed in laminar flow cabinet under pathogenic free conditions and used at 4-5 weeks of age.
(§2) The PC-3 human prostatic cancer cell lines (ECACC) were mantained in Minimum essential medium (GIBCO BRL) For in vivo studies, tumor cells in exponential growth phase were harvested by a 120 seconds treatment with tripsyn in 0.02% EDTA. After that the cells were resuspended in saline solution. 20 μl (10^5 cells) of saline solution was inoculated in nude mice prostate. The tumors were taken at different times (three up to 180 days) for analysis.
(§3) Animals were divided in groups (10 animals each one) and treated with different solutions:
(§4) physiological solution, -Sustance P (1 ng up to 1 mg), -L-703,606 (1 ng up to 1 mg), −L-703,606+Leuprolide Acetate (using dosages reported in table 1 and 2).
(§5) The treatments were made at different time (one at day until one at week). For different periods of time (three days up to 180 days).
Frozen sections of tumors have been fixed in Acetone, acetone/chloroform, acetone.
The presence of new blood vessels has been highlighted using the Rat anti-Mouse CD31 antibody, a Goat anti-Rat POX as a secondary antibody and DAB as a chromogen substrate. For quantification of blood vessels an image analysis system was employed.

[2] = tested on: PC-3 human prostatic cancer cell lines; test: Tumoral mass weight of orthotopic PC-3 prostate tumors in nude mice; type: in vivo, male athymic nude mices; conditions: compared to either control groups or SP treated mice; p<0.05; from 3 up to 180 days
Procedure: as §1, §2, §3, §4, §5
The animals were maitained under observation for three up to 180 days. Autoptic examinations were performed in all animals and the tumoral mass weighed.

NK-1 receptor [3] = target: T1, NK-1 receptor (Rattus norvegicus, UniProt P14600); conditions: rat tissues; cited from earlier work
T1 construct: pA2>6.0 both in murine and human tissues; host or cells: rat ('murine') tissues (not specified)

NK-1 receptor [4] = target: T2, NK-1 receptor (Homo sapiens, UniProt P25103); conditions: human tissues; cited from earlier work
T2 construct: pA2>6.0 both in murine and human tissues; host or cells: human tissues (not specified)
T2 sequence (P25103 whole entry): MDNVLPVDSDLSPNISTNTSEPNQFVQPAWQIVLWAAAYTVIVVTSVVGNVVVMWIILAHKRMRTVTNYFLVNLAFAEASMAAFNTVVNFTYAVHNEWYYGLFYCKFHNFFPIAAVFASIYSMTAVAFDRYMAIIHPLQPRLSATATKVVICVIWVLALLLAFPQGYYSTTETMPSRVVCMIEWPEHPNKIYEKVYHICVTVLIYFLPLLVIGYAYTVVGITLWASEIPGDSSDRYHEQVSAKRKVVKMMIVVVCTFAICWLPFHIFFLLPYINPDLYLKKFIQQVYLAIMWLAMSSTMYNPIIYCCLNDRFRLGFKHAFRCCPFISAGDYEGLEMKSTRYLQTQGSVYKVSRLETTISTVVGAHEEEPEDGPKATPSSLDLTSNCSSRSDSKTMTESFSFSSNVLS

T1 sequence (P14600 whole entry): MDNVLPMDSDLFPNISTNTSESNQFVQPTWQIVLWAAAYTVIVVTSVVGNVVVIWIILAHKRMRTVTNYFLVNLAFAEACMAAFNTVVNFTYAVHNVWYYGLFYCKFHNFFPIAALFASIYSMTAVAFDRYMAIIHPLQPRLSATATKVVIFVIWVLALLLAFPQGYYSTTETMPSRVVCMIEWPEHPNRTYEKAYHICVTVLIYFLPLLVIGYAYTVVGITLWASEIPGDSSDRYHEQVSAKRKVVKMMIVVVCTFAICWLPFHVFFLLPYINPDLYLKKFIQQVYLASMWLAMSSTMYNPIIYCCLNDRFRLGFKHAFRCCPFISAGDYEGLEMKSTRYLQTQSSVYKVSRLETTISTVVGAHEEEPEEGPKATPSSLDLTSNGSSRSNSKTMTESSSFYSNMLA

| Compound | CD 31 values (blood vessels density) [1] | tumoral mass weight [2] | pA2 rat (NK-1 receptor [3]) | pA2 human (NK-1 receptor [4]) |
| --- | --- | --- | --- | --- |
| Ic1ccccc1CN[C@@H]1C2CCN(CC2)[C@@H]1C(c1ccccc1)c1ccccc1 (racemic) [L-703,606] | statistically significant reduction | statistically significant reduction |  |  |
| COc1ccccc1CC(=N)N1C[C@@H]2C(=O)CCC(c3ccccc3)(c3ccccc3)[C@@H]2C1 [RP 67580] |  |  | 8.2 | 7.2 |
| COc1ccccc1CN[C@H]1C2CCN(CC2)[C@H]1C(c1ccccc1)c1ccccc1 [CP 96345] |  |  | 6.8 | 9.5 |
| CN(Cc1ccccc1)C(=O)[C@H](Cc1ccc2ccccc2c1)NC(=O)[C@@H]1C[C@@H](O)CN1C(=O)c1cn(C)c2ccccc12 [FK 888] |  |  | 6.0 | 9.1 |
| Cc1ccc(CC(=O)N(C)[C@H](Cc2ccc3ccccc3c2)C(=O)N[C@@H]2CCCC[C@@H]2NC(=O)c2c[nH]c3ccccc23)cc1 [MEN 11467] |  |  | >6.0 | >6.0 |
| COc1ccccc1CN[C@H]1CCCN[C@H]1c1ccccc1 [CP 99994] |  |  | 6.1 | 8.9 |
| COc1ccc(-n2nnnc2C(F)(F)F)cc1CN[C@H]1CCCN[C@H]1c1ccccc1 [GR 205171] |  |  | >6.0 | >6.0 |
| Cc1cc(C)cc(C(=O)N2CC[C@H](NCCc3ccccc3)C[C@H]2Cc2ccccc2)c1 [CGP 47899] |  |  | >6.0 | >6.0 |
| CC(C)Oc1cccc(CC(=O)N2CCC[C@](CC[N+]34CCC(c5ccccc5)(CC3)CC4)(c3ccc(Cl)c(Cl)c3)C2)c1 [SR 140333] |  |  | 7.4 | 9.8 |
| substance P (RPKPQQFFGLM; ends and bridges not checked; UniProt P20366 58-68, looked up) [SP, substance P (SP), plays a role in angiogenesis stimulation] | statistically significant increase |  |  |  |
